Reference: ChEMBL document CHEMBL1138970, “Structure-activity relationships of [2',5'-bis-O-(tert-butyldimethylsilyl)-beta-D-ribofuranosyl]- 3'-spiro-5' '-(4' '-amino-1' ',2' '-oxathiole-2' ',2' '-dioxide)thymine derivatives as inhibitors of HIV-1 reverse transcriptase dimerization” (J Med Chem, 2006)
pEC50, pIC50: −log10 of the molar value.

Legend:
[1] = target: T1, Human immunodeficiency virus type 1 reverse transcriptase (Human immunodeficiency virus 1, UniProt Q72547); test: Inhibition of FLAG-p66/HIS-p51-mediated HIV1 reverse transcriptase dimerization
[2] = tested on: Human immunodeficiency virus 1; test: Antiviral activity against HIV1 in MT4 cells; assay type: functional, organism-based; conditions: Human immunodeficiency virus 1, MT4
[3] = target: T1, Human immunodeficiency virus type 1 reverse transcriptase; test: Inhibition of HIV1 reverse transcriptase RNA-dependent DNA polymerase activity
[4] = Inhibition of MT4 cell viability; assay type: cell-based; conditions: human, MT4 cells

| pIC50 [1] | pEC50 [2] | pIC50 [3] | SMILES | CC50 [4] [µM] |
| --- | --- | --- | --- | --- |
| 5.30 | 6.96 | 5.62 | Cc1cn([C@@H]2O[C@H](CO[Si](C)(C)C(C)(C)C)[C@@]3(OS(=O)(=O)C=C3N)[C@H]2O[Si](C)(C)C(C)(C)C)c(=O)n(CC2CO2)c1=O (stereo partly specified) | 56 |
| 4.85 | 6.02 | 5.42 | Cc1cn([C@@H]2O[C@H](CO[Si](C)(C)C(C)(C)C)[C@@]3(OS(=O)(=O)C=C3N=C(N)N)[C@H]2O[Si](C)(C)C(C)(C)C)c(=O)[nH]c1=O | 87 |
| 5.72 | 7.40 | 6.30 | Cc1cn([C@@H]2O[C@H](CO[Si](C)(C)C(C)(C)C)[C@@]3(OS(=O)(=O)C=C3N)[C@H]2O[Si](C)(C)C(C)(C)C)c(=O)n(/C=C/CO)c1=O | 4 |
| 4.92 | 5.20 | 5.04 | Cc1cn([C@@H]2O[C@H](CO[Si](C)(C)C(C)(C)C)[C@@]3(OS(=O)(=O)C=C3N)[C@H]2O[Si](C)(C)C(C)(C)C)c(=O)n(CC(=O)N[C@@H](CC(=O)O)C(=O)O)c1=O | > 250 |
| 5.51 | 6.49 | 5.80 | Cc1cn([C@@H]2O[C@H](CO[Si](C)(C)C(C)(C)C)[C@@]3(OS(=O)(=O)C=C3N)[C@H]2O[Si](C)(C)C(C)(C)C)c(=O)n(/C=C\CO)c1=O | 36 |
| 4.92 | 5.24 | 5.51 | Cc1cn([C@@H]2O[C@H](CO[Si](C)(C)C(C)(C)C)[C@@]3(OS(=O)(=O)C=C3N)[C@H]2O[Si](C)(C)C(C)(C)C)c(=O)n(CC(=O)N[C@@H](C)C(=O)O)c1=O | > 250 |
| 5.37 | 6.59 | 6.30 | CCCn1c(=O)c(C)cn([C@@H]2O[C@H](CO[Si](C)(C)C(C)(C)C)[C@@]3(OS(=O)(=O)C=C3N)[C@H]2O[Si](C)(C)C(C)(C)C)c1=O | 75 |

The next lines start with the molecule.

| SMILES | pIC50 [1] | pEC50 [2] | pIC50 [3] | CC50 [4] [µM] |
| --- | --- | --- | --- | --- |
| Cc1cn(C2OC(CO[Si](C)(C)C(C)(C)C)CC2O[Si](C)(C)C(C)(C)C)c(=O)n(CC(=O)O)c1=O (stereo unspecified) | 5.96 | 5.19 | 5.24 | 17 |
| Cc1cn([C@@H]2O[C@H](CO[Si](C)(C)C(C)(C)C)[C@@]3(OS(=O)(=O)C=C3N)[C@H]2O[Si](C)(C)C(C)(C)C)c(=O)[nH]c1=O | 5.17 | 7.22 | 6.00 | 14 |
| CCc1cn([C@@H]2O[C@H](CO[Si](C)(C)C(C)(C)C)[C@@]3(OS(=O)(=O)C=C3N)[C@H]2O[Si](C)(C)C(C)(C)C)c(=O)[nH]c1=O | 5.07 | 7.22 | 5.47 | 20 |
| Cc1cn([C@@H]2O[C@H](CO[Si](C)(C)C(C)(C)C)[C@@]3(OS(=O)(=O)C=C3N)[C@H]2O[Si](C)(C)C(C)(C)C)c(=O)n(C)c1=O | 5.24 | 7.22 | 5.89 | 240 |
| Cc1cn([C@@H]2O[C@H](CO[Si](C)(C)C(C)(C)C)[C@@]3(OS(=O)(=O)C(I)=C3N)[C@H]2O[Si](C)(C)C(C)(C)C)c(=O)[nH]c1=O | 5.46 | 6.92 | 5.10 | 4 |
| CN(C)C(=O)c1cnnn1[C@@H]1O[C@H](CO[Si](C)(C)C(C)(C)C)[C@@]2(OS(=O)(=O)C=C2N)[C@H]1O[Si](C)(C)C(C)(C)C | 4.93 | 7.40 | 5.19 | 12 |
| Cc1cn([C@@H]2O[C@H](CO[Si](C)(C)C(C)(C)C)[C@@]3(OS(=O)(=O)C=C3N)[C@H]2O[Si](C)(C)C(C)(C)C)c(=O)n(CCc2ccccc2)c1=O | 5.52 | 6.08 | 6.10 | 2 |
| CNC(=O)CCCCn1c(=O)c(C)cn([C@@H]2O[C@H](CO[Si](C)(C)C(C)(C)C)[C@@]3(OS(=O)(=O)C=C3N)[C@H]2O[Si](C)(C)C(C)(C)C)c1=O | 5.17 | 7.30 | 5.49 | > 250 |
| Cc1cn([C@@H]2O[C@H](CO[Si](C)(C)C(C)(C)C)[C@@H](O)[C@H]2O[Si](C)(C)C(C)(C)C)c(=O)n(CC(=O)O)c1=O | 5.18 | 5.27 | 5.18 | 19 |
| Cc1cn([C@@H]2O[C@H](CO[Si](C)(C)C(C)(C)C)[C@@]3(OS(=O)(=O)C=C3N)[C@H]2O[Si](C)(C)C(C)(C)C)c(=O)n(CCCN(CC(=O)O)CC(=O)O)c1=O | 5.28 | 5.08 | 4.97 | 123 |
| Cc1cn([C@@H]2O[C@H](CO[Si](C)(C)C(C)(C)C)[C@@]3(OS(=O)(=O)C(/C=C/CO)=C3N)[C@H]2O[Si](C)(C)C(C)(C)C)c(=O)[nH]c1=O | 4.80 | 5.18 | 5.32 | 17 |
| COC(=O)C(=O)NC1=CS(=O)(=O)O[C@@]12[C@@H](COCc1ccccc1)O[C@@H](n1cc(C)c(=O)n(C)c1=O)[C@@H]2O[Si](C)(C)C(C)(C)C | 5.14 | 5.35 | 5.27 | 4 |
| Cc1cn([C@@H]2O[C@H](CO[Si](C)(C)C(C)(C)C)[C@@]3(OS(=O)(=O)C=C3N)[C@H]2O[Si](C)(C)C(C)(C)C)c(=O)n(CC(N)=O)c1=O | 5.15 | 7.15 | 5.77 | 18 |
| Cc1cn([C@@H]2O[C@H](CO[Si](C)(C)C(C)(C)C)[C@@]3(OS(=O)(=O)C=C3N)[C@H]2O[Si](C)(C)C(C)(C)C)c(=O)n(CC(=O)O)c1=O | 5.26 | 5.21 | 5.49 | > 155 |
| Cc1cn([C@@H]2O[C@H](CO[Si](C)(C)C(C)(C)C)[C@@]3(OS(=O)(=O)C=C3N)[C@H]2O[Si](C)(C)C(C)(C)C)c(=O)n(CCCN)c1=O | 5.14 | 6.28 | 5.36 | 14 |
| Cc1cn([C@@H]2O[C@H](CO[Si](C)(C)C(C)(C)C)[C@@]3(OS(=O)(=O)C=C3N)[C@H]2O[Si](C)(C)C(C)(C)C)c(=O)n(CCCO)c1=O | 5.80 | 7.52 | 6.15 | 4 |
| CC(C)(C)[Si](C)(C)OC[C@H]1O[C@@H](n2nncc2C(N)=O)[C@H](O[Si](C)(C)C(C)(C)C)[C@]12OS(=O)(=O)C=C2N | 5.00 | 6.28 | 5.08 | 15 |
